Earlier results in patent US7056858B2 (Varian, Inc., priority 2002, dated 2006).

Conditions: for π value: dipolarity/dipolarizability descriptor; for Σα value: hydrogen-bond acidity descriptor; for Σβ value: hydrogen-bond basicity descriptor

Structure (SMILES) | π value | Σα value | Σβ value
CN(C)C=O [N,N dimethylformamide] | 0.56 | 0.00 | 0.44
CN1CCCC1=O [N-methylpyrrolidone] | 0.57 | 0.00 | 0.43
NC=O [formamide] | 0.46 | 0.33 | 0.21
